{"source": "patent US20110312986A1", "about": "“Composition and Method for Treating Overactive Bladder” (ALLERGAN, INC., priority 2010, published 2011)", "key": {"[1]": {"assay": "clinical", "details": "both, human, plasma, oral"}, "[2]": {"details": "metabolite of Trospium; cited from earlier work"}, "[3]": {"assay": "Steady-state plasma pharmacokinetics of Trospium in subjects 65 years or older with overactive bladder symptoms (Example 1)", "assay_type": "in vivo, human", "details": "Day 10, 60 mg Trospium daily for 10 days", "procedure": "(§1) A single-center, single-blind, randomized, placebo-controlled, parallel group study was conducted to evaluate whether Trospium permeates across the human blood-brain barrier and whether Trospium could cause cognitive impairment."}, "[4]": {"details": "for Trospium Ae,0-24 (amount excreted unchanged in urine) / Trospium Ae,0-24/Dose (percentage of dose excreted in urine) / Trospium CLss/F (oral clearance) / Tmax: steady state; for Tmax: Trospium Tmax"}, "[5]": {"assay": "Trospium in cerebrospinal fluid: permeation across the blood-brain barrier (Example 1)", "assay_type": "in vivo, human", "procedure": "as §1\nFor cerebrospinal fluid sampling at each pharmacokinetics time point, about 2.5 mL of cerebral spinal fluid was collected on Day 10 at 0 hr, 2 hr, 5 hr, 7 hr, 12 hr, and 24 hr post dose."}, "[6]": {"details": "through tubular secretion and glomerular filtration; cited from earlier work"}, "[7]": {"assay": "Neuropsychology testing: HVLT-R and BVMT-R, reliable change index (Example 1)", "assay_type": "in vivo, human", "procedure": "as §1\nFor neuropsychology testing, each subject underwent the Hopkins Verbal Learning Test-Revised (HVLT-R) and the Brief Visuospatial Memory Test-Revised (BVMT-R) on Days 0, 9, and 10. Pre-dose (Day 0) and post-dose (Day 10) results on the neuropsychology tests were compared using a reliable change index to assess a change in learning of memory."}, "[8]": {"details": "60 mg Trospium with 500 mg Metformin"}, "[9]": {"details": "Glucophage/Sanctura XR regime (co-administered with 500 mg Metformin twice daily), N = 43"}, "[10]": {"details": "Trospium with Metformin versus Trospium alone"}, "[11]": {"details": "both, human, plasma, oral, 60 mg"}, "[12]": {"details": "column headed Glucophage ® Dosage Regime, N = 44, 60 mg Trospium daily for 10 days alone"}}, "note": "Where two headings read alike, the source gives them in different places.", "data": [{"smiles": "CN(C)C(=N)N=C(N)N", "note": "[Metformin, N,N-dimethylimidodicarbonimidic diamide]", "values": [{"measurement": "concentration at 11 hr", "setting": "[1]", "value": 155, "unit": "ng/mL"}, {"measurement": "concentration at 15 hr", "setting": "[1]", "value": 83, "unit": "ng/mL"}]}, {"smiles": "OC1C[C@H]2CC[C@@H](C1)[N+]21CCCC1", "note": "(stereo partly shown) [azoniaspironortropanol]", "values": [{"measurement": "Pharmacological activity of the metabolite", "setting": "[2]", "value": "pharmacologically inactive"}]}, {"smiles": "O=C(OC1CC2CCC(C1)[N+]21CCCC1)C(O)(c1ccccc1)c1ccccc1.[Cl-]", "note": "(stereo not shown) [Trospium, 3-(2-hydroxy-2,2-diphenylacetoxy) spiro[bicyclo[3.2.1]octane-8,1′-pyrrolidin]-1′-ium chloride]", "values": [{"measurement": "Trospium concentration in plasma", "setting": "[3]; 0 hr post dose", "value": 522, "unit": "pg/mL"}, {"measurement": "Trospium concentration in plasma", "setting": "[3]; 5 hr post dose", "value": 925, "unit": "pg/mL"}, {"measurement": "Trospium concentration in plasma", "setting": "[3]; 24 hr post dose", "value": 649, "unit": "pg/mL"}, {"measurement": "Time of peak plasma concentration post-dosing", "setting": "[3]", "value": 5, "unit": "h"}, {"measurement": "AUC(0-t)", "setting": "[3]; both sexes, human, plasma, linear trapezoidal rule, read-out: AUC0-24, steady state", "value": 18500, "unit": "ng·h/mL"}, {"measurement": "Cmax", "setting": "[3]; both sexes, human, plasma, read-out: Peak plasma concentration (Cmax)", "value": 0.925, "unit": "ng/mL"}, {"measurement": "Reduction of steady-state AUC0-24 of Trospium by co-administered Metformin", "setting": "[4]; [8]", "value": "~29", "unit": "%"}, {"measurement": "Reduction of steady-state Cmax of Trospium by co-administered Metformin", "setting": "[4]; [8]", "value": "approximately 34%"}, {"measurement": "Trospium Ae,0-24 (amount excreted unchanged in urine)", "setting": "[4]; [9]", "value": "0.281 ± 0.156", "unit": "mg"}, {"measurement": "Trospium Ae,0-24/Dose (percentage of dose excreted in urine)", "setting": "[4]; [9]", "value": "0.468 ± 0.260", "unit": "%"}, {"measurement": "Trospium CLss/F (oral clearance)", "setting": "[4]; [9]", "value": "4830 ± 2320", "unit": "L/h"}, {"measurement": "Percentage Ratio and 90% CI of the Geometric Mean of AUC0-24 (Combination/Alone)", "setting": "[4]; [10]", "value": "70.8 (66.2-75.7) %"}, {"measurement": "Percentage Ratio and 90% CI of the Geometric Mean of Cmax (Combination/Alone)", "setting": "[4]; [10]", "value": "66.3 (61.0-72.0) %"}, {"measurement": "AUC(0-t)", "setting": "[4]; [11]", "value": 22.7, "unit": "ng·h/mL"}, {"measurement": "Cmax", "setting": "[4]; [11]", "value": 1.87, "unit": "ng/mL"}, {"measurement": "concentration at 0 hr", "setting": "[4]; [11]", "value": 0.676, "unit": "ng/mL"}, {"measurement": "concentration at 1 hr", "setting": "[4]; [11]", "value": 0.831, "unit": "ng/mL"}, {"measurement": "concentration at 2 hr", "setting": "[4]; [11]", "value": 1.36, "unit": "ng/mL"}, {"measurement": "concentration at 3 hr", "setting": "[4]; [11]", "value": 1.57, "unit": "ng/mL"}, {"measurement": "concentration at 4 hr", "setting": "[4]; [11]", "value": 1.54, "unit": "ng/mL"}, {"measurement": "concentration at 5 hr", "setting": "[4]; [11]", "value": 1.53, "unit": "ng/mL"}, {"measurement": "concentration at 6 hr", "setting": "[4]; [11]", "value": 1.66, "unit": "ng/mL"}, {"measurement": "concentration at 8 hr", "setting": "[4]; [11]", "value": 1.12, "unit": "ng/mL"}, {"measurement": "concentration at 10 hr", "setting": "[4]; [11]", "value": 0.878, "unit": "ng/mL"}, {"measurement": "concentration at 12 hr", "setting": "[4]; [11]", "value": 0.781, "unit": "ng/mL"}, {"measurement": "concentration at 16 hr", "setting": "[4]; [11]", "value": 0.676, "unit": "ng/mL"}, {"measurement": "concentration at 24 hr", "setting": "[4]; [11]", "value": 0.655, "unit": "ng/mL"}, {"measurement": "Tmax", "setting": "[4]; both, human, plasma, oral, 60 mg, column headed Glucophage ® Dosage Regime, N = 44, 60 mg Trospium daily for 10 days alone", "value": "~4.42", "unit": "h"}, {"measurement": "Tmax", "setting": "[4]; both, human, plasma, oral, Glucophage/Sanctura XR regime (co-administered with 500 mg Metformin twice daily), N = 43", "value": "~4", "unit": "h"}, {"measurement": "CL renal", "setting": "[4]; both, human, urine and plasma, oral, 60 mg", "value": 307, "unit": "mL/min"}, {"measurement": "Trospium Ae,0-24 (amount excreted unchanged in urine)", "setting": "[4]; [12]", "value": "0.400 ± 0.247", "unit": "mg"}, {"measurement": "Trospium Ae,0-24/Dose (percentage of dose excreted in urine)", "setting": "[4]; [12]", "value": "0.667 ± 0.411", "unit": "%"}, {"measurement": "Trospium CLss/F (oral clearance)", "setting": "[4]; [12]", "value": "3510 ± 1920", "unit": "L/h"}, {"measurement": "Reduction in percentage of Trospium dose excreted in urine on co-administration of Metformin", "setting": "[4]; p value<0.0001", "value": 30, "unit": "%"}, {"measurement": "Trospium concentration in cerebrospinal fluid", "setting": "[5]; 0 hr post dose, Day 10, 60 mg Trospium daily for 10 days", "value": "<40", "unit": "pg/mL"}, {"measurement": "Trospium concentration in cerebrospinal fluid", "setting": "[5]; 5 hr post dose, Day 10, 60 mg Trospium daily for 10 days", "value": "<40", "unit": "pg/mL"}, {"measurement": "Trospium concentration in cerebrospinal fluid", "setting": "[5]; 24 hr post dose, Day 10, 60 mg Trospium daily for 10 days", "value": "<40", "unit": "pg/mL"}, {"measurement": "Trospium in cerebrospinal fluid, all 72 samples", "setting": "[5]; Day 10, 0 to 24 hr post dose, detectable range 40 pg/mL", "value": "< 40", "unit": "pg/mL"}, {"measurement": "concentration at 5 h", "setting": "[5]; both sexes, human, cerebrospinal fluid, 5 hr post dose, Day 10, 60 mg Trospium daily for 10 days", "value": "< 0.04", "unit": "ng/mL"}, {"measurement": "Crossing of the blood-brain barrier", "setting": "[5]; conclusion from the cerebrospinal fluid levels", "value": "does not cross the blood-brain barrier"}, {"measurement": "Share of the absorbed dose excreted unchanged in the urine", "setting": "[6]", "value": 60, "unit": "%"}, {"measurement": "Net drug effect on cognition (HVLT-R, BVMT-R)", "setting": "[7]; Day 0 versus Day 10, one subject deteriorated on total recall in both tests", "value": "no meaningful net drug effect on cognition"}, {"measurement": "Cognitive impairment or memory loss", "setting": "[7]; conclusion from the neuropsychology testing", "value": "does not cause cognitive impairment or memory loss"}]}]}
